The text below walks through data of patent US20240408094A1, “INHIBITION OF USP7 INDUCES P53-INDEPENDENT TUMOR GROWTH SUPPRESSION IN TRIPLE-NEGATIVE BREAST CANCERS BY DESTABILIZING FOXM1” (The Trustees of Columbia University in the City of New York, priority 2023, published 2024).

Where a SMILES comes first, the peptide text is derived from it. The star is where a group is joined. Cbz = O=C(OCc1ccccc1)*

Assay [1] has as its target T1, USP7 (Homo sapiens, UniProt Q93009).
T1 construct: used to treat CAL33 cells that express high levels of USP7 protein; endogenous in cells; host or cells: CAL33 (human head and neck squamous cell cancer); for A6 also the CRBN CRISPR knockout CAL33
Kind of assay: USP7 protein degradation by western blot in CAL33 cells. Format: cell-based. The conditions noted are these: CAL33 and A549 cells, 2.5 μM, 48 h. The procedure:
To specifically degrade USP7, a set of 66 PROTAC compounds were designed and synthesized that contain an USP7 specific binding moiety XL177A and an E3 ubiquitin ligase (CRBN or VHL) binding moiety connected by different linkers. All putative USP7 PROTACs were used to treat CAL33 cells that express high levels of USP7 protein, and then the USP7 protein levels were determined by western blot (FIGS. 10A and 10B). Through initial screening, PU7-1 was identified as a potential USP7 degrader (FIG. 3A and FIG. 10). […] The effect of PU7-1 was also tested in several human cancer cells harboring wild-type p53. […] In addition, to exclude the possibility that PU7-1 affects the USP7 protein levels by regulating its transcription, a quantitative real-time PCR was performed in CAL33 treated with PU7-1 for 72 h. […]
Cells were lysed in FLAG lysis buffer (50 mM Tris-HCl (pH 7.3), 137 mM NaCl, 10 mM NaF, 0.5 mM EDTA, 1% Triton X-100, 0.2% Sarkosyl, 10% glycerol) freshly supplemented with protease inhibitor cocktail. Protein concentration was determined by the Bio-Rad protein assay. […] Membranes were blocked with 5% (w/v) nonfat milk in Tris-buffered saline with Tween-20 (TBST), incubated with primary antibodies, then secondary HRP-conjugated antibodies (Jackson ImmunoResearch, 1:10000 dilution) and detected on autoradiographic films after incubating with ECL (Thermo Scientific, #32106). […]

The subject of a further assay is FOXM1. The assay can be described thus: Block of PU7-1-induced FOXM1 destabilization by pathway inhibitors in CAL33. The conditions noted are these: CAL33, 10 μM PU7-1 72 h; 1 μM MLN4924 or BafA1 24 h, 10 μM MG132 6 h. Format: cell-based, human.
Assay [2] deals with T1, USP7. The assay can be described thus: Rescue of PU7-1-mediated USP7 degradation by pathway inhibitors in CAL33. Format: cell-based. Conditions: CAL33, 5 μM PU7-1; 5 μM MLN4924, 25 μM Chloroquine or 5 μM MG132 for 24 h. The procedure:
USP7 protein levels were detected by immunoblots. […] USP7 protein levels were measured by immunoblots. […] USP7 protein levels were detected by immunoblots, then quantified by ImageJ after normalized to internal control β-actin. Half maximal degradation concentration (DC50) was calculated by Graphpad Prism.
To investigate the mechanism of action of PU7-1, CRBN knockout (KO) CAL33 cell line was generated using CRISPR-Cas9 technology. Control and CRBN KO cells were treated with 2.5 μM of PU7-1 for 72 h and then the expression levels of USP7 and CRBN proteins were detected by western blot analysis. CRBN protein was undetectable in the KO cells (FIG. 3H). […] CAL33 cells were first treated with 5 μM of PU7-1 for 48 h to degrade the USP7 proteins, and then treated with 5 μM of MLN4924, 25 μM of Chloroquine (CLQ) or 5 μM of MG132 for additional 24 h.

T1 sequence (Q93009 whole entry): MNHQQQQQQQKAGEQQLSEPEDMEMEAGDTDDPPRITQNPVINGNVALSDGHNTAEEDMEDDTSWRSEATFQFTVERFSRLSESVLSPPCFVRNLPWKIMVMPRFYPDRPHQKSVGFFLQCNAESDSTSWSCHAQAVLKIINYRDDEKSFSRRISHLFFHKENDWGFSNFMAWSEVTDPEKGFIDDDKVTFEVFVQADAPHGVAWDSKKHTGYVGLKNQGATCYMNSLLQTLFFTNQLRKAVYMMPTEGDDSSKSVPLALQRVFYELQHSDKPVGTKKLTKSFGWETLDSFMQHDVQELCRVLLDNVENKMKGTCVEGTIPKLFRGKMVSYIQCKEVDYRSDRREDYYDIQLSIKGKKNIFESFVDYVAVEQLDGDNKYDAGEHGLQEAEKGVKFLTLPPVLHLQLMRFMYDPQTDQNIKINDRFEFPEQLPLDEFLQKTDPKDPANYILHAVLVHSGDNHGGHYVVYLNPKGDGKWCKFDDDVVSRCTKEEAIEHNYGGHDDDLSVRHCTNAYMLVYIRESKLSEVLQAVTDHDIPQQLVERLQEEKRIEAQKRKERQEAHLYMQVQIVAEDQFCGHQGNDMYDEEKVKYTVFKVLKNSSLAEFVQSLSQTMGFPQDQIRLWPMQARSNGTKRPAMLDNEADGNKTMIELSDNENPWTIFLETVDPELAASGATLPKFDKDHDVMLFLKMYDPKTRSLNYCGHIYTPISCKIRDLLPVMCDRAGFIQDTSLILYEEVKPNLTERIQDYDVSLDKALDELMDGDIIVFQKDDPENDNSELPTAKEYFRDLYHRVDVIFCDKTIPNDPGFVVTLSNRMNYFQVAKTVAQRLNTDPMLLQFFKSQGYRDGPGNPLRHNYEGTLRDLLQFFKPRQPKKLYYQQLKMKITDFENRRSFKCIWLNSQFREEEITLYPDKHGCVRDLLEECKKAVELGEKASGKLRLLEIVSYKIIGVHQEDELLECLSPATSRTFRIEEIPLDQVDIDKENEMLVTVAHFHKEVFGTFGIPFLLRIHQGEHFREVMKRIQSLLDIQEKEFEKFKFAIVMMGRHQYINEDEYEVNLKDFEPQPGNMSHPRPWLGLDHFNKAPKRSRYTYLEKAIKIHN

Turning to `CN1C(=O)CCC(N2Cc3c(CCCCCN4CCN(CCC(=O)Nc5ccc6c(=O)n(CC7(O)CCN(C(=O)C(CCCNC(=O)c8ccc9c(Cl)c%10c(nc9c8)CCCC%10)Cc8ccccc8)CC7)cnc6c5)CC4)cccc3C2=O)C1=O` (stereo not drawn) [PU7-1N, N-(4-benzyl-5-(4-hydroxy-4-((7-(3-(4-(5-(2-(1-methyl-2,6-dioxopiperidin-3-yl)-1-oxoisoindolin-4-yl)pentyl)piperazin-1-yl)propanamido)-4-oxoquinazolin-3 (4H)-yl)methyl)piperidin-1-yl)-5-oxopentyl)-9-chloro-5,6,7,8-tetrahydroacridine-3-carboxamide], the “capability to degrade USP7 protein” value at USP7 [1] is “defective capability to degrade USP7 protein”.

Take `CC(C)C[C@@H](C=O)NC(=O)[C@H](CC(C)C)NC(=O)[C@H](CC(C)C)NC(=O)OCc1ccccc1` [MG132] (Cbz-Leu-Leu-Leu-aldehyde): in the assay on FOXM1, the “block of PU7-1-induced destabilization of FOXM1” value is recorded as “readily blocked”. In addition, the “effect on USP7 degradation mediated by PU7-1” value (from here on “effect”) on USP7 [2] is “significantly rescued”.

As to `NS(=O)(=O)OC[C@@H]1C[C@@H](n2ccc3c(N[C@H]4CCc5ccccc54)ncnc32)C[C@@H]1O` [MLN4924], the “block of PU7-1-induced destabilization of FOXM1” value in the assay on FOXM1 was “readily blocked”. Besides, the “effect” value on USP7 [2] is given as “significantly rescued”.

In the case of `CCN(CC)CCCC(C)Nc1ccnc2cc(Cl)ccc12` (stereo not drawn) [Chloroquine], the “effect” value at USP7 [2] is listed as “no effect”.
